According to PMC9898036, “VIP152 is a selective CDK9 inhibitor with pre-clinical in vitro and in vivo efficacy in chronic lymphocytic leukemia” (Leukemia, 2022):
Read-outs that look alike come from different tables or passages of the source.

Tests used:
Experiment in all cases: DiscoverX KINOMEscan kinase profiling (468 assays)
Type in all cases: binding
[1] = molecular target: human kinome (Homo sapiens, UniProt O75582); settings: compound concentration 1000 nM, read-out: Percent Control
Experimental: (§1) Kinomescan Kinase Profiling Assay
(§2) Kinomescan Assay was performed at DiscoverRX and described in Fabian, et al. 2005, Nat.
(§3) Biotechnol. In brief, kinases were produced and subsequently tagged with DNA for qPCR detection.
(§4) Streptavidin-coated magnetic beads were bound to biotinylated kinase ligands to serve as a solid support.
(§5) VIP152 was dissolved in DMSO and tested across a 10 serial threefold dilution set and compared to a test
(§6) compound and a DMSO control.
(§7) Kinome map was produced via TreeSpot
(§8) Analysis from DiscoverRX. […]

[2] = molecular target: human kinome (Homo sapiens, UniProt Q9Y6R4); settings: MAP3K4; 100 nM; read-out: Percent Control
Experimental: as §1, §2, §3, §4, §5, §6, §7, §8

[3] = molecular target: human kinome (Homo sapiens, UniProt Q6PHR2); settings: kinase ULK3 (Entrez ULK3); compound concentration 1000 nM; read-out: Percent Control
Experimental: as §1, §2, §3, §4, §5, §6, §7, §8

[4] = molecular target: human kinome (Homo sapiens, UniProt P48730); settings: CSNK1D; 100 nM; read-out: Percent Control
Experimental: as §1, §2, §3, §4, §5, §6, §7, §8

[5] = molecular target: human kinome (Homo sapiens, UniProt Q15418); settings: compound concentration 1000 nM, read-out: Percent Control
Experimental: as §1, §2, §3, §4, §5, §6, §7, §8

[6] = molecular target: human kinome (Homo sapiens, UniProt P21802); settings: FGFR2; 100 nM; read-out: Percent Control
Experimental: as §1, §2, §3, §4, §5, §6, §7, §8

[7] = molecular target: human kinome (Homo sapiens, UniProt Q9Y6M4); settings: CSNK1G3; 100 nM; read-out: Percent Control
Experimental: as §1, §2, §3, §4, §5, §6, §7, §8

[8] = molecular target: human kinome (Homo sapiens, UniProt Q7KZI7); settings: MARK2; 100 nM; read-out: Percent Control
Experimental: as §1, §2, §3, §4, §5, §6, §7, §8

[9] = molecular target: human kinome (Homo sapiens, UniProt Q9UL54); settings: kinase TAOK2 (Entrez TAOK2); compound concentration 1000 nM; read-out: Percent Control
Experimental: as §1, §2, §3, §4, §5, §6, §7, §8

[10] = molecular target: human kinome (Homo sapiens, UniProt P45985); settings: MEK4 (Entrez MAP2K4); 100 nM; read-out: Percent Control
Experimental: as §1, §2, §3, §4, §5, §6, §7, §8

[11] = molecular target: human kinome (Homo sapiens, UniProt P53779); settings: JNK3 (Entrez MAPK10); 100 nM; read-out: Percent Control
Experimental: as §1, §2, §3, §4, §5, §6, §7, §8

[12] = molecular target: human kinome (Homo sapiens, UniProt Q15375); settings: EPHA7; 100 nM; read-out: Percent Control
Experimental: as §1, §2, §3, §4, §5, §6, §7, §8

[13] = molecular target: human kinome (Homo sapiens, UniProt Q12851); settings: MAP4K2; 100 nM; read-out: Percent Control
Experimental: as §1, §2, §3, §4, §5, §6, §7, §8

[14] = molecular target: human kinome (Homo sapiens, UniProt O15530); settings: read-out: Percent Control
Experimental: as §1, §2, §3, §4, §5, §6, §7, §8

[15] = molecular target: human kinome (Homo sapiens, UniProt Q8TBX8); settings: read-out: Percent Control
Experimental: as §1, §2, §3, §4, §5, §6, §7, §8

[16] = molecular target: human kinome (Homo sapiens, UniProt Q16512); settings: read-out: Percent Control
Experimental: as §1, §2, §3, §4, §5, §6, §7, §8

[17] = molecular target: human kinome (Homo sapiens, UniProt Q13557); settings: CAMK2D; 100 nM; read-out: Percent Control
Experimental: as §1, §2, §3, §4, §5, §6, §7, §8

[18] = molecular target: human kinome (Homo sapiens, UniProt Q8NG66); settings: read-out: Percent Control
Experimental: as §1, §2, §3, §4, §5, §6, §7, §8

[19] = molecular target: human kinome (Homo sapiens, UniProt P57078); settings: kinase RIPK4 (Entrez RIPK4); compound concentration 1000 nM; read-out: Percent Control
Experimental: as §1, §2, §3, §4, §5, §6, §7, §8

[20] = molecular target: human kinome (Homo sapiens, UniProt Q99683); settings: ASK1 (Entrez MAP3K5); 100 nM; read-out: Percent Control
Experimental: as §1, §2, §3, §4, §5, §6, §7, §8

[21] = molecular target: human kinome (Homo sapiens, UniProt O60331); settings: read-out: Percent Control
Experimental: as §1, §2, §3, §4, §5, §6, §7, §8

[22] = molecular target: human kinome (Homo sapiens, UniProt Q9HBY8); settings: kinase SGK2 (Entrez SGK2); compound concentration 1000 nM; read-out: Percent Control
Experimental: as §1, §2, §3, §4, §5, §6, §7, §8

[23] = molecular target: human kinome (Homo sapiens, UniProt Q2M2I8); settings: AAK1; 100 nM; read-out: Percent Control
Experimental: as §1, §2, §3, §4, §5, §6, §7, §8

[24] = molecular target: human kinome (Homo sapiens, UniProt P08581, Y1235D); settings: MET(Y1235D); 100 nM; read-out: Percent Control
Experimental: as §1, §2, §3, §4, §5, §6, §7, §8

[25] = molecular target: human kinome (Homo sapiens, UniProt P06241); settings: FYN; 100 nM; read-out: Percent Control
Experimental: as §1, §2, §3, §4, §5, §6, §7, §8

[26] = molecular target: human kinome (Homo sapiens, UniProt O00750); settings: read-out: Percent Control
Experimental: as §1, §2, §3, §4, §5, §6, §7, §8

[27] = molecular target: human kinome (Homo sapiens, UniProt Q16832); settings: DDR2; 100 nM; read-out: Percent Control
Experimental: as §1, §2, §3, §4, §5, §6, §7, §8

[28] = molecular target: human kinome (Homo sapiens, UniProt Q13546); settings: kinase RIPK1 (Entrez RIPK1); compound concentration 1000 nM; read-out: Percent Control
Experimental: as §1, §2, §3, §4, §5, §6, §7, §8

[29] = molecular target: human kinome (Homo sapiens, UniProt O14920); settings: IKK-beta (Entrez IKBKB); 100 nM; read-out: Percent Control
Experimental: as §1, §2, §3, §4, §5, §6, §7, §8

human kinome (Homo sapiens, UniProt O60331), sequence (O60331 whole entry): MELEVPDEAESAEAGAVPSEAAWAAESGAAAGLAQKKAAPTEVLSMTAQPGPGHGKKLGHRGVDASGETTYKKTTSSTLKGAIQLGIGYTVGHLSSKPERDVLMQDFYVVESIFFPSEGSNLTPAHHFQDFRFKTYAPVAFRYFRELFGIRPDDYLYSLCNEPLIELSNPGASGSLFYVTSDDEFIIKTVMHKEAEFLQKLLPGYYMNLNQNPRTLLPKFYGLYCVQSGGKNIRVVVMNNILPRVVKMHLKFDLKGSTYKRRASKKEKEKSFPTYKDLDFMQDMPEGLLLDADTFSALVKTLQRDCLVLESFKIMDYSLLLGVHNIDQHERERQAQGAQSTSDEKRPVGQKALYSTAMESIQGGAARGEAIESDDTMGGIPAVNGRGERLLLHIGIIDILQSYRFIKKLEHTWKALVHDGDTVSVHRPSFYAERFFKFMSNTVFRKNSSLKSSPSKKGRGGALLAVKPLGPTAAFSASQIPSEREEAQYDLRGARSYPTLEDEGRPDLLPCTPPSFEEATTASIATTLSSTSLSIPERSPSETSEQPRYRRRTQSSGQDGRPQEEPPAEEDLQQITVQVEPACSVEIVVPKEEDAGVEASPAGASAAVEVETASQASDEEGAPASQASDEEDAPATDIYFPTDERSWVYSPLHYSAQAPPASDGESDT
human kinome (Homo sapiens, UniProt Q15418), sequence (Q15418 whole entry): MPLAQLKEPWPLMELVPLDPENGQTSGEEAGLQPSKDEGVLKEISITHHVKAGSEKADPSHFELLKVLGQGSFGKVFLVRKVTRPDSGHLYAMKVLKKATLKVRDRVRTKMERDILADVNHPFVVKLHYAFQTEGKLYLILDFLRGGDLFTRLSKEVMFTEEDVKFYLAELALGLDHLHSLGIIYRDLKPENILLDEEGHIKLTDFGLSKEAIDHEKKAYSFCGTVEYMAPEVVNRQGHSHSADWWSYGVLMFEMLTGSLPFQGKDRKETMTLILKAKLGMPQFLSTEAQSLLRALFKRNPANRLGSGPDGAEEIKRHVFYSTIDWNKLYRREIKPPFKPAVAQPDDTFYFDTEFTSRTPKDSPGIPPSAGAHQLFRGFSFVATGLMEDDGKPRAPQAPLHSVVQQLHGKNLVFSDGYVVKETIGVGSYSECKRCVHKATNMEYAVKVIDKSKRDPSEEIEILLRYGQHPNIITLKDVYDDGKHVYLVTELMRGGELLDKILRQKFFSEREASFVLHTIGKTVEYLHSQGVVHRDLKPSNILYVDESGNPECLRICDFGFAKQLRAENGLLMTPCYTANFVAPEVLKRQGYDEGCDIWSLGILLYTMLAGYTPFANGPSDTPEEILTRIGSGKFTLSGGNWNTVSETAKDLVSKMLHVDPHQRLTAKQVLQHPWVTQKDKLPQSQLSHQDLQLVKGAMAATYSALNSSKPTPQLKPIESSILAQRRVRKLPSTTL
human kinome (Homo sapiens, UniProt Q8NG66), sequence (Q8NG66 whole entry): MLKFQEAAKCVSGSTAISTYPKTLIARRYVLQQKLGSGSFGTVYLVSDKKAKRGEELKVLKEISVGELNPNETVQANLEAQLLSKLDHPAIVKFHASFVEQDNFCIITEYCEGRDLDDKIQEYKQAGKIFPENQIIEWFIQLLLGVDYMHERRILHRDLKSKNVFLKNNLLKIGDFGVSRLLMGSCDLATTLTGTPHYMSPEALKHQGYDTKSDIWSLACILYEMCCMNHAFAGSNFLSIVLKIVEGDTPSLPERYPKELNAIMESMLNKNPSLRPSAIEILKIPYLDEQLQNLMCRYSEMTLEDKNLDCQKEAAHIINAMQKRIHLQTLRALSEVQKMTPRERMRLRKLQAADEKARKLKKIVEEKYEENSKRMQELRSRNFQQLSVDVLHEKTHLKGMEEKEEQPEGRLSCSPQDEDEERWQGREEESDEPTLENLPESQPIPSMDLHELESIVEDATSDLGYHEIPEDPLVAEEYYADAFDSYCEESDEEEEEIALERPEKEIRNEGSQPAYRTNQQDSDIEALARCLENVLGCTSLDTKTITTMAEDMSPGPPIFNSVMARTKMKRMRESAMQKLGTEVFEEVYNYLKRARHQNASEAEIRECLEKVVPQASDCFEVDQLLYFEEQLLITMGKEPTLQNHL
human kinome (Homo sapiens, UniProt O75582), sequence (O75582 whole entry): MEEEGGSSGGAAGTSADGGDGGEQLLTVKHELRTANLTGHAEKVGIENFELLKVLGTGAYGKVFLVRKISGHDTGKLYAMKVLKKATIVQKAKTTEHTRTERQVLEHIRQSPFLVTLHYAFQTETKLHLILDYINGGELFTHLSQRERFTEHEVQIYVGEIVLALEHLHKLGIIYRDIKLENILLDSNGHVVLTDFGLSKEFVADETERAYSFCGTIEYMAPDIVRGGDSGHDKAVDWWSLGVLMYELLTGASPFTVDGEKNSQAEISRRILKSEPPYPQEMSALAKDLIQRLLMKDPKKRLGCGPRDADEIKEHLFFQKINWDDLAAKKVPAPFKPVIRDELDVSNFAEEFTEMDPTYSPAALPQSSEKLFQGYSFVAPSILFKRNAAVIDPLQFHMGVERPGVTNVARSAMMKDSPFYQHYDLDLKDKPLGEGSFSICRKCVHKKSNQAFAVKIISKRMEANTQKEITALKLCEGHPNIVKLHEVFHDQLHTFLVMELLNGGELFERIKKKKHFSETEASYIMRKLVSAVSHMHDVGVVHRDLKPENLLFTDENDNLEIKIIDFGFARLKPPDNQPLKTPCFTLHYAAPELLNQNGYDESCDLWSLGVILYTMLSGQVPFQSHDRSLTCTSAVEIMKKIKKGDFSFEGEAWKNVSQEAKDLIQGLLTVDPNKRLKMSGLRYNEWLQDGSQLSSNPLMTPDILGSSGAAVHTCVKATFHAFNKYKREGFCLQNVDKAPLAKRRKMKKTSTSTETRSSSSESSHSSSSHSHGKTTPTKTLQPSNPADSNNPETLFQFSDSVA
human kinome (Homo sapiens, UniProt Q16512), sequence (Q16512 whole entry): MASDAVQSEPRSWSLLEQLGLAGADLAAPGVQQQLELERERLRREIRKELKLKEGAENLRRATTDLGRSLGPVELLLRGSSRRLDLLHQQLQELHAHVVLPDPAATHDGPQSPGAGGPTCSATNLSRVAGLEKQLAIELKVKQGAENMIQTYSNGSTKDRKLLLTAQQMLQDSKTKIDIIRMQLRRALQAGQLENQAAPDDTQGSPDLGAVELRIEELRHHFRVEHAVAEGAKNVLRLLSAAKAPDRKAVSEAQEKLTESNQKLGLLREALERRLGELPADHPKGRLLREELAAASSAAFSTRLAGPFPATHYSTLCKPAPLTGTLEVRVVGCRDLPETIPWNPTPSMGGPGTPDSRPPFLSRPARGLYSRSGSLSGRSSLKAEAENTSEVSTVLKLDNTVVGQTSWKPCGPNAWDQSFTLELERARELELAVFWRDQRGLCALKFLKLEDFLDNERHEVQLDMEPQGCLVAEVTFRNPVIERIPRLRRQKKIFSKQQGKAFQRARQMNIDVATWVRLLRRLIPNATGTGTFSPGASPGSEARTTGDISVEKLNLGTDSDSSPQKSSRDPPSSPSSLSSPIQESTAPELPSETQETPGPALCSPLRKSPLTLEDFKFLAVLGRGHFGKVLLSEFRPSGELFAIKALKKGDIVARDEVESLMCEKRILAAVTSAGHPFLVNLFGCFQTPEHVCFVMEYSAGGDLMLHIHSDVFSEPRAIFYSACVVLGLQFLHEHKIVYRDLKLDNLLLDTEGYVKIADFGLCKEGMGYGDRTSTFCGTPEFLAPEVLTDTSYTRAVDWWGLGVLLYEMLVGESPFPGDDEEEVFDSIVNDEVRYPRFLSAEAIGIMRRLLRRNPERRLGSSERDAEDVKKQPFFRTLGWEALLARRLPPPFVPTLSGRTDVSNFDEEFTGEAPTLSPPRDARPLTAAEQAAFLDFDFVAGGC
human kinome (Homo sapiens, UniProt O15530), sequence (O15530 whole entry): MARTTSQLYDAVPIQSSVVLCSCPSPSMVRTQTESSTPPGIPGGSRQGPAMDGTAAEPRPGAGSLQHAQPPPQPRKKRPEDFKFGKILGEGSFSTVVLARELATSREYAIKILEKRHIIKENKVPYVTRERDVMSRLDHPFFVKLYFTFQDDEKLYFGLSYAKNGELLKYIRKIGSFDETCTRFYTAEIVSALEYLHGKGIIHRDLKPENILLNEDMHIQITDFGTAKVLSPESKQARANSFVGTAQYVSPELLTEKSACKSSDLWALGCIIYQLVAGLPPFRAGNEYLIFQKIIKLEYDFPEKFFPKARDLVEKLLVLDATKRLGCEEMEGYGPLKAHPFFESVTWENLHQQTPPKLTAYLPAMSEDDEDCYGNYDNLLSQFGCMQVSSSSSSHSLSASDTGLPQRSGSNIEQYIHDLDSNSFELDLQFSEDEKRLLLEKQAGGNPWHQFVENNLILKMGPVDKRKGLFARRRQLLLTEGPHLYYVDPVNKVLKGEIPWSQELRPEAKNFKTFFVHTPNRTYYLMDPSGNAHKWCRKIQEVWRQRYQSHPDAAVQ
human kinome (Homo sapiens, UniProt Q8TBX8), sequence (Q8TBX8 whole entry): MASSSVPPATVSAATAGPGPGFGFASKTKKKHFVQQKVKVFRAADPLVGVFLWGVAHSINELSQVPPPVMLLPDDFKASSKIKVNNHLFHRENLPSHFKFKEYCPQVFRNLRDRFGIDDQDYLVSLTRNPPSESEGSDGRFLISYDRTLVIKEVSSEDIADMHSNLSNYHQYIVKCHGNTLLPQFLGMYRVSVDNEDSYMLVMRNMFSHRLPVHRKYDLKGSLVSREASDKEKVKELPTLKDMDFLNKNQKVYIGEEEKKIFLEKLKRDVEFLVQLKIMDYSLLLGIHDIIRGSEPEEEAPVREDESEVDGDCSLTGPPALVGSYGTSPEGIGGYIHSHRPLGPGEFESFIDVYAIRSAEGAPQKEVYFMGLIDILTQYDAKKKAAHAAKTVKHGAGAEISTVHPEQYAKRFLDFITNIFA

Q: For COc1cc(F)ccc1-c1cc(Nc2cc(CS(C)(=N)=O)ccn2)ncc1F (stereo not shown) [VIP152], which remaining binding at 1 µM ([1]; kinase RPS6KA5(Kin.Dom.1-N-terminal) (Entrez RPS6KA5)) is on record?
A: 100%

Q: What about the remaining binding at 1 µM ([1]; kinase RPS6KA5(Kin.Dom.2-C-terminal) (Entrez RPS6KA5)) of the same compound?
A: 100%

Q: What about the remaining binding at 0.1 µM [2] of the same compound?
A: 100%

Q: And the remaining binding at 1 µM [3]?
A: 85%

Q: What about the remaining binding at 0.1 µM [4] of the same compound?
A: 100%

Q: And the remaining binding at 1 µM ([5]; kinase RSK1(Kin.Dom.1-N-terminal) (Entrez RPS6KA1))?
A: 95%

Q: What about the remaining binding at 1 µM ([5]; kinase RSK1(Kin.Dom.2-C-terminal) (Entrez RPS6KA1)) of the same compound?
A: 89%

Q: What about the remaining binding at 0.1 µM [6] of the same compound?
A: 100%

Q: And the remaining binding at 0.1 µM [7]?
A: 98%

Q: What about the remaining binding at 0.1 µM [8] of the same compound?
A: 100%

Q: What about the remaining binding at 1 µM [9] of the same compound?
A: 67%

Q: And the remaining binding at 0.1 µM [10]?
A: 100%

Q: What about the remaining binding at 0.1 µM [11] of the same compound?
A: 94%

Q: And the remaining binding at 0.1 µM [12]?
A: 100%

Q: What about the remaining binding at 0.1 µM [13] of the same compound?
A: 80%

Q: What about the remaining binding at 0.1 µM ([14]; PDPK1, 100 nM) of the same compound?
A: 100%

Q: What about the remaining binding at 1 µM ([14]; kinase PDPK1 (Entrez PDPK1), compound concentration 1000 nM) of the same compound?
A: 100%

Q: What about the remaining binding at 0.1 µM ([15]; PIP5K2C (Entrez PIP4K2C), 100 nM) of the same compound?
A: 52%

Q: What about the remaining binding at 1 µM ([15]; kinase PIP5K2C (Entrez PIP4K2C), compound concentration 1000 nM) of the same compound?
A: 82%

Q: What about the remaining binding at 0.1 µM ([16]; PKN1, 100 nM) of the same compound?
A: 100%

Q: And the remaining binding at 1 µM ([16]; kinase PKN1 (Entrez PKN1), compound concentration 1000 nM)?
A: 88%

Q: And the remaining binding at 0.1 µM [17]?
A: 100%

Q: What about the remaining binding at 0.1 µM ([18]; NEK11, 100 nM) of the same compound?
A: 100%

Q: What about the remaining binding at 1 µM ([18]; kinase NEK11 (Entrez NEK11), compound concentration 1000 nM) of the same compound?
A: 74%

Q: And the remaining binding at 1 µM [19]?
A: 49%

Q: What about the remaining binding at 0.1 µM [20] of the same compound?
A: 100%

Q: And the remaining binding at 0.1 µM ([21]; PIP5K1C, 100 nM)?
A: 60%

Q: What about the remaining binding at 1 µM ([21]; kinase PIP5K1C (Entrez PIP5K1C), compound concentration 1000 nM) of the same compound?
A: 92%

Q: What about the remaining binding at 1 µM [22] of the same compound?
A: 73%

Q: And the remaining binding at 0.1 µM [23]?
A: 100%

Q: What about the remaining binding at 0.1 µM [24] of the same compound?
A: 82%

Q: What about the remaining binding at 0.1 µM [25] of the same compound?
A: 100%

Q: What about the remaining binding at 0.1 µM ([26]; PIK3C2B, 100 nM) of the same compound?
A: 100%

Q: What about the remaining binding at 1 µM ([26]; kinase PIK3C2B (Entrez PIK3C2B), compound concentration 1000 nM) of the same compound?
A: 90%

Q: And the remaining binding at 0.1 µM [27]?
A: 79%

Q: What about the remaining binding at 1 µM [28] of the same compound?
A: 79%

Q: What about the remaining binding at 0.1 µM [29] of the same compound?
A: 100%
